In ChEMBL document CHEMBL1150483, “4-oxygenated retinoids: unexpected chemopreventive potential for analogues originally synthesized as affinity labels” (1992):

Tests used:
[1] = species on record: Mus musculus; assay: Ability to inhibit tumor promoter-induced ornithine decarboxylase activity in mouse skin using 17 nM of protein; assay type: functional
[2] = species on record: Mus musculus; assay: Ability to inhibit tumor promoter-induced ornithine decarboxylase activity in mouse skin using 1.7 nM of protein; assay type: functional

SMILES | ODC Activity [1] | ODC Activity [2]
C=CC(=O)OC1CCC(C)(C)C(/C=C/C(C)=C/C=C/C(C)=C/C(=O)O)=C1C (stereo unspecified) | 2.4 (nM of CO2) 30min-1 (mg of protein)-1 | 3.5 (nM of CO2) 30min-1 (mg of protein)-1
CC1=C(/C=C/C(C)=C/C=C/C(C)=C/C(=O)O)C(C)(C)CCC1 [TRETINOIN] | 1.9 (nM of CO2) 30min-1 (mg of protein)-1 | 2 (nM of CO2) 30min-1 (mg of protein)-1
CC1=C(/C=C/C(C)=C/C=C/C(C)=C/C(=O)O)C(C)(C)CCC1OC(=O)CBr (stereo unspecified) | 2.5 (nM of CO2) 30min-1 (mg of protein)-1 | 2.3 (nM of CO2) 30min-1 (mg of protein)-1
